Data from US20230250070A1, “DIHYDROOXAZOLE AND THIOUREA DERIVATIVES MODULATING THE NLRP3 INFLAMMASOME PATHWAY” (AC IMMUNE SA, priority 2020, published 2023).

How the values were obtained:
[1] = system: NLRP3 inflammasome pathway; test: Human whole blood assay (LPS-ATP), IL-1β levels by AlphaLISA; type: cell-based; details: LPS priming, ATP activation 1 h, IL-1β in plasma
Description: • Preliminary blood hemolysis assessment was performed before running the assay. Blood samples were centrifuged at 1000 g for 10 min. Then, 50 to 100 µL of blood were transferred into Corning™96-Well Clear flat bottom plate. Hemolysis was assessed via Tecan at 414 nm wavelength. Hemolysis O.D. values should be lower than 1. • Add 10 µL LPS 9× or CTRL following plate layout. • Add 80 µL of each whole blood/well in PP low-bind 96-well plate. • Incubate for 2h30 to 3 h at 37° C. and 5% CO2. • Add 10 µL of compounds 10× or control in wells following plate layout. • Incubate for 30 min at 37° C. and 5% CO2. • Add 11 µL ATP 10× or control in all wells following plate layout. • Incubate for 1 h at 37° C. and 5% CO2. • Collect 1 h timepoint → Centrifuge the plate 1000 g 10 min, collect the plasma (40 to 50 µL) and store at -20° C. • Measure IL-1β levels by AlphaLISA
(§1) For IL-1β quantification, supernatants were analyzed using AlphaLISA kits according to the manufacturer’s instructions (Perkin Elmer AlphaLISA AL220F). Briefly, in a 384-well OptiPlate™ microplate, 5 µl of sample was mixed, with 20 µl of AlphaLISA Anti-Analyte Acceptor beads (10 µg/mL final) and Biotinylated Antibody Anti-Analyte (1 nM final). Then, incubated 60 minutes at RT, then 25 µL of 2X SA-Donor beads (40 µg/mL final) were added and incubated 30 minutes at RT in the dark. Reading was done using an EnVision-Alpha Reader (PerkinElmer).
(§2) IC50(concentration corresponding to 50% inhibition) were determined using GraphPad Prism 8.

[2] = system: NLRP3 inflammasome pathway; test: NLRP3 inflammasome pathway activation assay, MSU stimulation, IL-1β release (AlphaLISA); type: cell-based; details: PMA-differentiated, LPS-primed human monocyte-like cells, MSU 150 µg/ml for 3 h
[3] = system: NLRP3 inflammasome pathway; test: NLRP3 inflammasome pathway activation assay, Nigericin stimulation, IL-1β release (AlphaLISA); type: cell-based; details: PMA-differentiated, LPS-primed human monocyte-like cells, Nigericin 3.75 µM for 3 h
Description: The following assays were used to determine the inhibitory activity of test compounds on the NLRP3 inflammasome pathway using common stimuli Nigericin (Invivogen) or monosodium urate crystals (MSU) (Invivogen).
Human monocyte-like cells were cultured in RPMI-1640 Glutamax medium supplemented with 10% heat inactivated FCS and 50 U/ml penicillin-streptomycin (Life Technologies).
Human monocyte-like cells were seeded at 75000 per well in a 96-well plate and were differentiated overnight into macrophages with 10 ng/ml PMA (Phorbol Myristate Acetate). The following day, medium containing 10 ng/ml LPS (Lipopolysaccharide) were added. After 3 hours of LPS priming, concentrations of test compound in the range from 100 µM to 6 nM were added 30 min prior to NLRP3 inflammasome pathway stimulation with Nigericin 3.75 µM or MSU 150 µg/ml for 3 h.
as §1, §2

[4] = system: NLRP3 inflammasome pathway; test: LPS-ATP induced peritonitis mouse model, IL-1β in peritoneal lavage; type: in vivo, C57BL/6 female mice; details: for inhibition of IL-1β release in peritoneal lavage samples (FIG. 1): mice dosed 1 mg/kg or 3 mg/kg by intraperitoneal injection, n=6, p<0.0001 vs vehicle-treated group; for % IL-1 beta inhibition vs vehicle (peritoneal lavage samples): mice, intraperitoneal 1 mg/kg or 3 mg/kg (dose not given), 15 min before ATP
Description: C57BL/6 female mice aged 6 to 8 weeks were randomized into experimental groups. Mice were challenged intraperitoneally with 50 µg/kg LPS. Two hours later, mice received i.p. 200 µL of ATP (Adenosine TriPhosphate) 50 mM, pH 7.2. Compounds were administered intraperitoneally at 1 mg/kg or 3 mg/kg, 15 minutes before ATP injection. Thirty minutes after ATP injection, animals were sacrificed by CO2. Cardiac blood was collected through heart puncture. Peritoneal lavage was performed with a total volume of 4 mL of sterile saline solution with intact peritoneum. IL-1b levels were assessed in peritoneal lavage samples via AlphaLisa. Results were expressed as % reduction compared to vehicle-treated group.
as §1

Structure (SMILES) | IC50 [1] | IC50 [2] | IC50 [3] | inhibition of IL-1β release in peritoneal lavage samples (FIG. 1) [4] | % IL-1 beta inhibition vs vehicle (peritoneal lavage samples) [4]
CCOC(=O)C1(c2cc(C(C)(C)O)on2)CN=C(Nc2c3c(cc4c2CCC4)CCC3)O1 (single isomer, unassigned) [Example 16, Ethyl 2-((1,2,3,5,6,7-hexahydro-s-indacen-4-yl)amino)-5-(5-(2-hydroxypropan-2-yl)isoxazol-3-yl)-4,5-dihydrooxazole-5-carboxylate] | < 1000 nM | < 1000 nM | < 1000 nM | significant inhibition | 99%
CC(C)(O)c1cc(C2(C(=O)O)CN=C(Nc3c4c(cc5c3CCC5)CCC4)O2)no1 (stereo not drawn) [Example 23, 2-((1,2,3,5,6,7-hexahydro-s-indacen-4-yl)amino)-5-(5-(2-hydroxypropan-2-yl)isoxazol-3-yl)-4,5-dihydrooxazole-5-carboxylic acid] | 1000 to 10000 nM |  | < 1000 nM | significant inhibition | >99%
